Laboratory results reported in US20040038855A1 (priority 1999, published 2004).
pKi: −log10 of the molar value. Like-named read-outs stand apart in the source and are kept apart here.

Key:
[1] = target: T1, human Dopamine D2 receptor (Homo sapiens, UniProt P14416); assay: Binding affinity at the human dopamine D2 receptor; conditions: Table 3c; read-out: hD2 Ki
T1 construct: purchased BioSignal, Inc. (Montreal, Canada)
Source text: (§1) Other receptors: Cell membranes expressing human dopamine D1, D2, D4 and rat D3 receptors were purchased through BioSignal, Inc. (Montreal, Canada). Binding assays using the histamine H1 receptor; dopamine receptors; and α1A, α1B, and α2 adrenergic receptors may be carried out according to the procedures described in U.S. Pat. No. 5,780,485, the disclosure of which is hereby incorporated by reference in its entirety into this application. Binding assays using the dopamine D5 receptor may be carried out according to the procedures described in U.S. Pat. No. 5,882,855, the disclosure of which is hereby incorporated by reference in its entirety into this application. Binding assays for the human α1D adrenergic receptor may be carried out according to the procedures described in U.S. Pat. No. 6,156,518, the disclosure of which is hereby incorporated by reference in its entirety into this application.

[2] = target: T2, human Alpha-1a Adrenergic receptor (Homo sapiens, UniProt P35348); assay: Binding affinity at the human alpha-1A adrenergic receptor
T2 construct: expressed in transfected cells
T2 sequence (P35348 1-466): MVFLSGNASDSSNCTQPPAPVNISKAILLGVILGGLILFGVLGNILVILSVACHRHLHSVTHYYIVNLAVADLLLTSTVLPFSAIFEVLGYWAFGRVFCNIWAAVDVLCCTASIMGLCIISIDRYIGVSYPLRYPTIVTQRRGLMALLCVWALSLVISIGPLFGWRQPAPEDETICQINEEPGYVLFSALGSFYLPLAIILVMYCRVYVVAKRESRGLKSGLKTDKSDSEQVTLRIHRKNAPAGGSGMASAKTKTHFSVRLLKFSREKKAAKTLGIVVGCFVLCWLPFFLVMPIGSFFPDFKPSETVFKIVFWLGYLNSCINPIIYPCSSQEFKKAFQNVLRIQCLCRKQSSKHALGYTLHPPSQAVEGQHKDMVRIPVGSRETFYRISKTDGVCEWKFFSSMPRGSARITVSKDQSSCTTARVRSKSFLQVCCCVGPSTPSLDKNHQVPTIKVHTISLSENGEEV
Source text: as §1

[3] = target: T3, human Histamine H1 receptor (Homo sapiens, UniProt P35367); assay: Binding affinity at the human histamine H1 receptor
T3 construct: expressed in transfected cells
T3 sequence (P35367 whole entry): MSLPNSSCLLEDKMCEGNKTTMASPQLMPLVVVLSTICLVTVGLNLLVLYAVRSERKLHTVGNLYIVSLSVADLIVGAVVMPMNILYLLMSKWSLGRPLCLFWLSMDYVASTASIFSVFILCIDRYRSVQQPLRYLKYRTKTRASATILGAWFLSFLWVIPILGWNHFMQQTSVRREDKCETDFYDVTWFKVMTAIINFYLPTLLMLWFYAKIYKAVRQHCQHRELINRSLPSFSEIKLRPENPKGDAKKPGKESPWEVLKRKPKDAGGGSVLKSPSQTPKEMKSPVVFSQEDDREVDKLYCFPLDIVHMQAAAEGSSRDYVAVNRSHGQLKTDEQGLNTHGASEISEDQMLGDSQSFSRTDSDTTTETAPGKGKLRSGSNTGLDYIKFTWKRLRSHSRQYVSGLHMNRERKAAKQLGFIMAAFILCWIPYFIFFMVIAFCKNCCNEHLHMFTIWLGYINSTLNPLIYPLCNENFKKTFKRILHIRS
Source text: as §1

[4] = target: T4, rat MCH1 receptor (Rattus norvegicus, UniProt P97639); assay: Binding affinity (Ki) at the rat MCH1 receptor; conditions: for Ki: Examples 38-141, read-out: Ki (nM) rMCH1
T4 construct: expressed in transfected cells
T4 sequence (P97639 whole entry): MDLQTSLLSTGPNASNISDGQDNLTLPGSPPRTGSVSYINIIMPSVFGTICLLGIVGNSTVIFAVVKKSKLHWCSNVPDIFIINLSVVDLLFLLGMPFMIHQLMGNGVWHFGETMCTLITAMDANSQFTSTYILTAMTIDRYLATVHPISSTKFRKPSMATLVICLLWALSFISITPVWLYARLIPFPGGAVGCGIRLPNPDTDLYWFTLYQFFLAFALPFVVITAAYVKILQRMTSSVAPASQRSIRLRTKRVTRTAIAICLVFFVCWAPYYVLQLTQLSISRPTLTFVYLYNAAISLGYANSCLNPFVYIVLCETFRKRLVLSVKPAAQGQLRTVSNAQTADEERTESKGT
Experimental: For binding assays, pellets of transfected cells are suspended in ice-cold buffer (20 mM Tris.HCl, 5 mM EDTA, pH 7.4) and homogenized by sonication for 7 sec. The cell lysates are centrifuged at 200×g for 5 min at 4° C. The supernatants are then centrifuged at 40,000×g for 20 min at 4° C. The resulting pellets are washed once in the homogenization buffer and suspended in binding buffer (see methods for radioligand binding). Protein concentrations are determined by the method of Bradford (1976) using bovine serum albumin as the standard. Binding assays are usually performed immediately, however it is possible to prepare membranes in batch and store frozen in liquid nitrogen for future use.
Binding is performed at 25° C. for 1 hr. Incubations are terminated by rapid vacuum filtration over GF/C glass fiber filters, presoaked in 5% PEI using 50 mM Tris pH 7.4 containing 0.01% triton X-100 as wash buffer.
A methanolic solution of methyl (4S)-3-({[3-(4-[3-(acetylamino)phenyl]-3,6-dihydro-1(2H)pyridinyl)propyl]amino}carbonyl)-4-(3,4-difluorophenyl)-6-(methoxymethyl)-2-oxo-1,2,3,4-tetrahydro-5-pyrimidinecarboxylate was exposed to tritium gas at 1 atmosphere pressure in the presence of 5% palladium on carbon with stirring overnight to give the tritiated methyl (4S)-3-{[(3-{4-[3-(acetylamino)phenyl]-1-piperidinyl}propyl)amino]carbonyl}-4-(3,4-difluorophenyl)-6-(methoxymethyl)-2-oxo-1,2,3,4-tetrahydro-5-pyrimidinecarboxylate ((+)-isomer) After purification by reverse phase HPLC (Hypersil ODS, 4.6×100 mm, methanol:H2O:Et3N 10:90:1 to 100:0:1 in 15 min at 1.0 mL/min, with radiochemical and UV detection), this product was used as a radioligand in the MCH1 binding assays. The same procedure was carried out with H2 gas in place of ^3H2 to afford the non-radioactive version of Compound 10.

[5] = Table 3c, read-out: hAlpha-1a Ki

T1 sequence (P14416 whole entry): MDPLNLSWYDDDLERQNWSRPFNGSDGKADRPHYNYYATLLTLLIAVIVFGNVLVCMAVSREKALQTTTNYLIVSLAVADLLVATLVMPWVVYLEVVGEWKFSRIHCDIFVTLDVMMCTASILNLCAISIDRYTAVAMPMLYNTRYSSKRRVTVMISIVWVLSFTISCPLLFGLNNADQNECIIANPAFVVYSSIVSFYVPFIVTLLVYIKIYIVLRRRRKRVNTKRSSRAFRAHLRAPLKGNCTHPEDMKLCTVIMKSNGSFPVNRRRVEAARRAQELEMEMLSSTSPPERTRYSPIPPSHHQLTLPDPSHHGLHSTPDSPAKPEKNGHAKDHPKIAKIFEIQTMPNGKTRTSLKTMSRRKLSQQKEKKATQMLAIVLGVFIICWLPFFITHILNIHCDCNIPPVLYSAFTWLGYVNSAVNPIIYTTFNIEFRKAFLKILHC

pKi [1]	pKi [2, 5]	pKi ([3]; Table 3c, read-out: hH1 Ki)	Ki [4] [nM]	pKi ([4]; Table 3c, read-out: rMCH1 Ki)	SMILES	pKi [3]	pKi [4]	pKi ([4]; read-out: rMCH1 Ki, Table 3c)	pKi [2]
4.46	5.96	4.78	29.1	7.54	COC(CCN1CCC(c2cccc(NC(=O)C(C)C)c2)CC1)c1ccccc1 (stereo not drawn) [Example 93]				
5.13	7.91	6.56	50	7.30	CC(C)C(=O)Nc1cccc(C2CCN(CCCCc3ccccc3)CC2)c1 [Example 96]				
5.06	6.15	4.95	11.5	7.94	CC(C)OC(CCN1CCC(c2cccc(NC(=O)C(C)C)c2)CC1)c1ccccc1 (stereo not drawn) [Example 100]				
5.97	6.79	6.52	3.9	8.41	COc1ccc(O[C@@H](CCN2CCC(c3cccc(NC(=O)C(C)C)c3)CC2)c2ccccc2)cc1 [Example 106]				
6.82	7.47	6.89	3.1	8.51	CC(C)C(=O)Nc1cccc(C2CCN(CC[C@H](Oc3cccc(Cl)c3)c3ccccc3)CC2)c1 [Example 107]				
6.61	7.88	6.58	3.8	8.42	CC(C)C(=O)Nc1cccc(C2CCN(CC[C@H](Oc3ccc(Cl)cc3)c3ccccc3)CC2)c1 [Example 108]				
4.38	5.49	4.31	16.6	7.78	CC(C)C(=O)Nc1cccc(C2CCN(CC[C@@H](O)c3ccccc3)CC2)c1 [Example 113]				
7.28	7.65	6.26	0.923	9.03	CC(C)C(=O)Nc1cccc(C2CCN(CC[C@H](Oc3ccc(Br)cc3)c3ccccc3)CC2)c1 [Example 116]				
6.55	6.51	6.01	13.6	7.87	COc1cccc(O[C@@H](CCN2CCC(c3cccc(NC(=O)C(C)C)c3)CC2)c2ccccc2)c1 [Example 117]				
6.50	5.94	5.16	14.8	7.83	CC(=O)c1ccccc1O[C@H](CCN1CCC(c2cccc(NC(=O)C(C)C)c2)CC1)c1ccccc1 [Example 120]				

Continued, molecule first:

SMILES	pKi [1]	pKi [2, 5]	pKi ([3]; Table 3c, read-out: hH1 Ki)	Ki [4] [nM]	pKi ([4]; Table 3c, read-out: rMCH1 Ki)	pKi [3]	pKi [4]	pKi ([4]; read-out: rMCH1 Ki, Table 3c)	pKi [2]
COC(CCN1CCC(c2cccc(NC(=O)C(C)C)c2)CC1)c1ccc(Cl)cc1 (stereo not drawn) [Example 91]	5.02	6.27	5.70	11.5	7.94				
CC(C)C(=O)Nc1cccc(C2CCN(CCCCCCN3C(=O)c4ccccc4C3=O)CC2)c1 [Example 92]	4.92	5.83	5.61	62	7.21				
CC(C)C(=O)Nc1cccc(C2CCN(CCCCN3C(=O)c4ccccc4C3=O)CC2)c1 [Example 94]	< 4.30	5.80	5.18	18.2	7.74				
CC(C)C(=O)Nc1cccc(C2CCN(CCCCCN3C(=O)c4ccccc4C3=O)CC2)c1 [Example 95, N-(3-{1-[5-(1,3-dioxo-1,3-dihydro-2H-isoindol-2-yl)pentyl]-4-piperidinyl]phenyl)-2-methylpropanamide]	< 4.30	5.53	5.19	11.8	7.93				
COC(CCN1CCC(c2cccc(NC(=O)C(C)C)c2)CC1)c1ccc(C)cc1 (stereo not drawn) [Example 99]	4.98	6.36	5.59	12	7.92				
CC(C)C(=O)Nc1cccc(C2CCN(CCCC(c3ccc(F)cc3)c3ccc(F)cc3)CC2)c1 [Example 101]	7.37	7.74	8.47	1.6	8.80				
CC(C)C(=O)Nc1cccc(C2CCN(Cc3cc(C(F)(F)F)cc(C(F)(F)F)c3)CC2)c1 [Example 103]	< 4.30	< 4.30	4.43	52	7.28				
COc1ccc(O[C@H](CCN2CCC(c3cccc(NC(=O)C(C)C)c3)CC2)c2ccccc2)cc1OC [Example 104]	6.13	6.34	5.19	6.7	8.17				
CC(C)C(=O)Nc1cccc(C2CCN(CC[C@H](Oc3ccccc3)c3ccccc3)CC2)c1 [Example 105]	6.33	6.85				7.41	8.15	8.15	
CC(C)C(=O)Nc1cccc(C2CCN(CC[C@H](Oc3ccc(C(F)(F)F)cc3)c3ccccc3)CC2)c1 [Example 109]	6.72	6.66	5.88	7.1	8.15				
CC(C)C(=O)Nc1cccc(C2CCN(CC[C@@H](Oc3cc(F)ccc3F)c3ccccc3)CC2)c1 [Example 110]	7.08	6.73	6.55	4.9	8.31				
CC(C)C(=O)Nc1cccc(C2CCN(CC[C@@H](Oc3ccc(Cl)c(Cl)c3)c3ccccc3)CC2)c1 [Example 111]	6.79	6.90	5.96	5	8.30				
CC(C)C(=O)Nc1cccc(C2CCN(CC[C@@H](Oc3ccccc3)c3ccccc3)CC2)c1 [Example 112]	6.36					7.49	7.65	7.65	7.26
CC(C)C(=O)Nc1cccc(C2CCN(CC[C@H](Oc3ccc(C#N)cc3)c3ccccc3)CC2)c1 [Example 114, N-(3-{1-[(3S)-3-(4-cyanophenoxy)-3-phenylpropyl]-4-piperidinyl}phenyl)-2-methylpropanamide]	6.41	6.63	6.23	2.01	7.70				
COCC1=C(C(=O)OC)C(c2ccc(F)c(F)c2)N(C(=O)NCCCN2CCC(c3cc(F)ccc3OC)CC2)C(=O)N1 (stereo not drawn) [Example 115]	6.58	7.31	7.33	12.9	7.89				
COc1cc(C#N)ccc1O[C@@H](CCN1CCC(c2cccc(NC(=O)C(C)C)c2)CC1)c1ccccc1 [Example 118]	6.50	6.14	4.60	12.8	7.89				
COc1ccc(C(C)=O)cc1O[C@@H](CCN1CCC(c2cccc(NC(=O)C(C)C)c2)CC1)c1ccccc1 [Example 119]	6.12	5.98	4.60	22.4	7.65				
CC(C)C(=O)Nc1cccc(C2CCN(CC[C@@H](Oc3cc(C(F)(F)F)ccc3F)c3ccccc3)CC2)c1 [Example 121]	6.48	5.76	5.03	17	7.77				
CC(C)C(=O)Nc1cccc(C2CCN(CC[C@H](Oc3cc(C(F)(F)F)ccc3F)c3ccccc3)CC2)c1 [Example 122]	6.88	6.03	5.46	3.3	8.48				
CC(C)C(=O)Nc1cccc(C2CCN(CC[C@H](Oc3cc(F)ccc3F)c3ccccc3)CC2)c1 [Example 123]	6.88	6.29	5.67	5.9	8.23				
